Molecular target: T1, nsp10–14 fusion protein (Severe acute respiratory syndrome coronavirus 2, UniProt P0DTD1)
T1 construct: gene rep; with Non-structural protein 10
Assay: biochemical

Compound: O=C1C=C2C(=CCOC2O)O1 (stereo not shown) [patulin]
- IC50: 1800 nM

From paper PMC8286829, “Identifying SARS-CoV-2 antiviral compounds by screening for small molecule inhibitors of nsp14/nsp10 exoribonuclease” (Biochemical Journal, 2021)
